{"source": "paper PMC7901654", "about": "“Bioisosteric Discovery of NPA101.3, a Second-Generation RET/VEGFR2 Inhibitor Optimized for Single-Agent Polypharmacology” (Journal of Medicinal Chemistry, 2020)", "key": {"RET/C634R": {"molecular_target": "T1, RET/C634R (Homo sapiens, UniProt P07949, C634R)", "T1 construct": "expressed in transfected cells; host or cells: RAT1 fibroblasts (gift of M. Billaud)", "T1 sequence (P07949 29-1072 isoform P07949-2 C634R limits assumed)": "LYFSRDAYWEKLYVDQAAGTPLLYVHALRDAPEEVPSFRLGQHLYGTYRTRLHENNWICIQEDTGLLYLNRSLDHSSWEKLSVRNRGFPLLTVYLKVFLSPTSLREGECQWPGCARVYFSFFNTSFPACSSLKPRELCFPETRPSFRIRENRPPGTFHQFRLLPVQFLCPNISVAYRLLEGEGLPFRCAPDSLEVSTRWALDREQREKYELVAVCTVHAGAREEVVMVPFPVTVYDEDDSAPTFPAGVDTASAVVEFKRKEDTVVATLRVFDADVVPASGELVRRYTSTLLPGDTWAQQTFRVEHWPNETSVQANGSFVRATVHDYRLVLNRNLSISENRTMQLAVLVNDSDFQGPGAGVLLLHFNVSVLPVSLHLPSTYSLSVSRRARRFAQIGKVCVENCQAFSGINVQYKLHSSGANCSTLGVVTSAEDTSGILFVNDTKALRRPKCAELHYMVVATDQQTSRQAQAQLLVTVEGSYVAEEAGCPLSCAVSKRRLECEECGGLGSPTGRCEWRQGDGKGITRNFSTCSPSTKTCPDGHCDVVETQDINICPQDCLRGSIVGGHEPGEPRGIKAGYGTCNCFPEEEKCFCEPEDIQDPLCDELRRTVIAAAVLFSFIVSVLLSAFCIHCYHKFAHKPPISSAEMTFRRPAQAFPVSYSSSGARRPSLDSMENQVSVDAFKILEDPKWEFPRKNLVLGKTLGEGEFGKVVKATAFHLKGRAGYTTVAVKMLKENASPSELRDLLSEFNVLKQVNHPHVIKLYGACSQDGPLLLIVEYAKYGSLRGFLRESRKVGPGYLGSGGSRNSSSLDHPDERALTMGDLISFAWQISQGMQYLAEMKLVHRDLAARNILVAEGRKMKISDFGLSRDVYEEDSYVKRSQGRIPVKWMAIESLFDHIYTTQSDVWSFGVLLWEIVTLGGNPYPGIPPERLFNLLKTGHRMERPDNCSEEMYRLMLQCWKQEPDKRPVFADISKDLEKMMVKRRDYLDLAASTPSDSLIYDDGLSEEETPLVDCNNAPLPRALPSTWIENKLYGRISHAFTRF", "test": "RET autophosphorylation (Y905, Y1062) Western blot in transfected fibroblasts (RAT1)", "type": "cell-based", "settings": "2 h", "protocol": "(§1) Fibroblasts transfected with RET/C634R were treated with increasing doses of NPA101.3, ranging from 0.1 to 10.0 nM. RET autophosphorylation was assessed by Western blotting using two different antibodies that can recognize phosphorylated Y905, located in the RET kinase activation loop, or Y1062, a multidocking site involved in RET downstream signaling.[41]\n(§2) Figure 4 NPA101.3-mediated inhibition of phosphorylation and signaling of oncogenic RET mutants and VEGFR2 in intact cells. Serum-starved RAT1 cells exogenously expressing the (A and B) indicated RET point mutants or (C) NIH3T3 cells exogenously expressing the indicated RET rearranged mutants were treated for 2 h with the indicated concentrations of the compound. Total cell lysates (50 μg) were subjected to immunoblotting with anti-phospho-Y1062 (αp1062) and anti-phospho-Y905 (αp905) RET antibodies. The blots were normalized using the anti-RET (αRET) antibody. (D) HEK293 cells were transiently transfected with human VEGFR2; 36 h after transfection, cells were serum starved for 12 h. The indicated doses of the compound or vehicle (NT) were added for 2 h, and then VEGFA (100 ng/mL) stimulation was applied for 15 min. […]\n(§3) Protein lysates were prepared according to standard procedures. […] Immune complexes were detected with the enhanced chemiluminescence kit (Amersham Pharmacia Biotech, Little Chalfont, U.K.). […]"}, "[1]": {"system": "RET/M918T, RET/A883F, and RET/V804L/M", "test": "RET phosphorylation Western blot in RAT1 cells, other point mutants", "type": "cell-based", "settings": "2 h", "protocol": "as §1, §2, §3"}, "human VEGFR2": {"molecular_target": "T2, human VEGFR2 (Homo sapiens, UniProt P35968)", "T2 construct": "expressed in transfected cells; host or cells: HEK293, transient transfection", "T2 sequence (P35968 20-1356)": "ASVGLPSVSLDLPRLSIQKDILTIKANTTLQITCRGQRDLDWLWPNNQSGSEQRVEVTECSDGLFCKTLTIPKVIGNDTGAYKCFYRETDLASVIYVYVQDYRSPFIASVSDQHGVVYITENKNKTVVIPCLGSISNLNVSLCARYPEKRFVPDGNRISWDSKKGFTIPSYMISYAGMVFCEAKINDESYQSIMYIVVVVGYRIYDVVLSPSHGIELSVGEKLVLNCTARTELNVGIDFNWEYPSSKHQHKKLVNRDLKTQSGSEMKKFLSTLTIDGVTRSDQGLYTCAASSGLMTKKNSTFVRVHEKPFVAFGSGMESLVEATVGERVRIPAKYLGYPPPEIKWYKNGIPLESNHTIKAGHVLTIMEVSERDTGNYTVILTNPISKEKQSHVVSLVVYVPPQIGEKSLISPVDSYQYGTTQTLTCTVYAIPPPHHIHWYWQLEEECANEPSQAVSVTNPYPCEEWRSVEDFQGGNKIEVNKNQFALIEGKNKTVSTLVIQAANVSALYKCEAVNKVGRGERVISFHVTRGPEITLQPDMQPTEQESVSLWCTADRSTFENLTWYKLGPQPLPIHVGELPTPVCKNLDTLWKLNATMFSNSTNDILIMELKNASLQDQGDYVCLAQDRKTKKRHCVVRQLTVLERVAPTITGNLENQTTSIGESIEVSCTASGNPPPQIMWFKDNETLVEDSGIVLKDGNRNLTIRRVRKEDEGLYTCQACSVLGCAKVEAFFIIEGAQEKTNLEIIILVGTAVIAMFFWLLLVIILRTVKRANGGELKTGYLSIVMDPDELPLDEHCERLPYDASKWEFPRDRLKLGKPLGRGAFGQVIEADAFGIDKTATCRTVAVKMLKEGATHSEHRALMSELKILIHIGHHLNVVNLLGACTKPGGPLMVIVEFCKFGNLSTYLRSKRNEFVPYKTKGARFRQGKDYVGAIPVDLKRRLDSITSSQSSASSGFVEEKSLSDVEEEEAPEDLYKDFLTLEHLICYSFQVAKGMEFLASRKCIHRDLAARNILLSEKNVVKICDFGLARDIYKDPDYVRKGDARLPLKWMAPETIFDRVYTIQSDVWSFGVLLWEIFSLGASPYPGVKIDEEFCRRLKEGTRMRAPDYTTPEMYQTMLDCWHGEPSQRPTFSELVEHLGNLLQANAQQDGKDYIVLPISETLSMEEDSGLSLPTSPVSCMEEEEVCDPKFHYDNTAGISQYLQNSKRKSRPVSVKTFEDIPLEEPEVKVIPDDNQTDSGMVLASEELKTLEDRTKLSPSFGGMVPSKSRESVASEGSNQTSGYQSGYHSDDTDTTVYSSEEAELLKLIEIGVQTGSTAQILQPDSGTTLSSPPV", "test": "Ligand-induced VEGFR2 autophosphorylation in transfected HEK293 cells", "type": "cell-based", "settings": "2 h, VEGFA 100 ng/mL", "protocol": "as §1, §2, §3"}, "[2]": {"system": "RET-driven Ba/F3 cells (RET/C634R, RET/M918T, CCDC6-RET)", "test": "Cell growth curves, RET-driven Ba/F3 cells taken together", "type": "cell-based, murine", "settings": "Mus musculus, BaF3; range over RET-transfected Ba/F3 lines; read-out: IC50, RET-driven Ba/F3 cell proliferation", "from_the_text": "The murine pro-B cell line Ba/F3 requires IL-3 (interleukin 3) for proliferation and survival; this dependency is bypassed by active tyrosine kinases. Therefore, the Ba/F3 cell line is a standard cell culture model for determining the activity and drug-mediated inhibition of tyrosine kinases.[42] Accordingly, stable transfection of RET/C634R, RET/M918T, and CCDC6-RET oncoproteins promotes IL-3-independent growth (Figure 5).\nNthy-ory-3-1 (10000 per well), TPC-1 (10000 per well), MZ-CRC-1 (100000 per well), TT (200000 per well), Lc-2/ad (100000 per well), BCPAP (10000 per well), 8505-C (10000 per well), PC-9 (10000 per well), A549 (10000 per well), CALU-1 (10000 per well), NIH3T3 RET/C634Y (10000 per well), and NIH3T3 HRAS/G12V (10000 per well) were seeded in six-well tissue culture plates. Cells were kept in 2% (TPC-1), 5% (Nthy-ori-3-1), or 10% (BCPAP, 8505-C, CALU-1, A549, PC-9, TT, MZ-CRC-1, and Lc-2/ad) fetal calf serum or in 2% (NIH3T3 RET/C634Y and HRAS/G12V) calf serum. Ba/F3 cells (200000 per well in 2 mL) were seeded in six-well tissue culture plates and kept in 10% fetal calf serum. […] Cells were counted every day (Ba/F3), every 2 days (fibroblasts), or every 2–3 days (human cell lines). […] IC50 doses were calculated through a curve fitting analysis from last day of growth curves using the PRISM software program (Graphpad Software Inc.)."}, "[3]": {"system": "RET mutant TT, MZ-CRC-1, TPC-1, and Lc-2/ad human cancer cells", "test": "Cell growth curves, RET mutant human cancer cells taken together", "type": "cell-based", "settings": "range over TT, MZ-CRC-1, TPC-1, Lc-2/ad, read-out: IC50, proliferation of RET mutant human cancer cells", "protocol": "The IC50 dose for all human RET-negative cells was >100.0 nM, confirming compound selectivity (Figure S8 and Table S4).\nNthy-ory-3-1 (10000 per well), TPC-1 (10000 per well), MZ-CRC-1 (100000 per well), TT (200000 per well), Lc-2/ad (100000 per well), BCPAP (10000 per well), 8505-C (10000 per well), PC-9 (10000 per well), A549 (10000 per well), CALU-1 (10000 per well), NIH3T3 RET/C634Y (10000 per well), and NIH3T3 HRAS/G12V (10000 per well) were seeded in six-well tissue culture plates. Cells were kept in 2% (TPC-1), 5% (Nthy-ori-3-1), or 10% (BCPAP, 8505-C, CALU-1, A549, PC-9, TT, MZ-CRC-1, and Lc-2/ad) fetal calf serum or in 2% (NIH3T3 RET/C634Y and HRAS/G12V) calf serum. Ba/F3 cells (200000 per well in 2 mL) were seeded in six-well tissue culture plates and kept in 10% fetal calf serum. The day after plating, different concentrations of the drug or vehicle were added to the medium and changed every 2–3 days. Cells were counted every day (Ba/F3), every 2 days (fibroblasts), or every 2–3 days (human cell lines). To compare cell growth, we performed an unpaired Student’s t test using the Instat software program (Graphpad Software Inc.). […] IC50 doses were calculated through a curve fitting analysis from last day of growth curves using the PRISM software program (Graphpad Software Inc.)."}}}
{"smiles": "CC(C)(C)c1cc(NC(=O)Cc2ccc(-n3cnc4cc(-c5ccc(S(C)(=O)=O)cc5)ccc43)cc2)no1", "note": "[NPA101.3]", "values": [{"measurement": "RET phosphorylation (Y905, Y1062)", "setting": "RET/C634R; 0.3 nM", "value": "started to be inhibited"}, {"measurement": "RET phosphorylation (Y905, Y1062)", "setting": "RET/C634R; 3.0 nM", "value": "almost completely blocked"}, {"measurement": "phosphorylation of other MTC-associated RET oncogenic point mutants", "setting": "[1]", "value": "inhibited"}, {"measurement": "ligand-induced VEGFR2 autophosphorylation", "setting": "human VEGFR2; 1.0 nM", "value": "reduced"}, {"measurement": "inhibition of ligand-induced VEGFR2 autophosphorylation", "setting": "human VEGFR2; 10.0 nM", "value": "virtually total"}, {"measurement": "IC50", "setting": "[2]", "value": "1.6 to 3.1", "unit": "nM"}, {"measurement": "IC50", "setting": "[3]", "value": "0.67 to 3.6", "unit": "nM"}]}
